Assay results published in patent US20240067639A1, “SMALL MOLECULES THAT TARGET THE RNA THAT CAUSES ALS” (EXPANSION THERAPEUTICS, INC., priority 2020, published 2024).
Read-outs that look alike come from different tables or passages of the source.

Experiments:
[1] = target: biotinylated r(G4C2)8 RNA and hnRNP H1-His6; assay: TR-FRET hnRNP H binding assay
Experimental: TR-FRET hnRNP H Binding Assay. The TR-FRET assays were performed as previously described (Disney et al., 2012) except the final concentrations of biotinylated r(G4C2)8 (SEQ ID NO: 2) RNA and hnRNP H1-His6 were 80 nM and 75 nM, respectively. The RNA was folded by heating to 95° C. for 5 min in 1× Folding Buffer followed by slowly cooling to room temperature. The buffer was adjusted to 1×TR-FRET Assay Buffer followed by addition of compound. The mixture was incubated for 15 min at room temperature and then hnRNP H1-His6 was added. After an additional 15 min incubation, streptavidin-XL665 (HTRF, Cisbio Bioassays) and anti-His6-Tb (HTRF, Cisbio Bioassays) were added to a final concentration of 40 nM and 0.44 ng/μL, respectively. After incubating for 1 h, TR-FRET was measured as previously described. The IC50s were either calculated by fitting the equation (1) in Graphpad Prism.

[2] = system: RAN translation of (G4C2)66-No ATG-GFP in HEK293T cells; assay: Cell-based assay of RAN translation inhibition (GFP/mCherry reporter); conditions: Homo sapiens, HEK-293T, 24 h, read-out: RANT IC25
[3] = Table F, HEK293T, 24 h treatment
[4] = Table D, HEK293T, 24 h treatment

Structure (SMILES) | Ki ([1]; Table F) [µM] | IC25 [2] [µM] | IC25 [2, 3] [µM] | Ki ([1]; Table D) [µM] | IC25 [2, 4] [µM]
Cc1c2ccncc2cc2c3cc(OCCN4CCC(C)CC4)ccc3n(C)c12 [Compound 227, 5,6-dimethyl-9-(2-(4-methylpiperidin-1-yl)ethoxy)-6H-pyrido[4,3-b]carbazole] | 1.4 | > 5 |  |  | 
Cc1c2ccncc2cc2c3cc(OCCN4CCC(F)CC4)ccc3n(C)c12 [Compound 229, 9-(2-(4-fluoropiperidin-1-yl)ethoxy)-5,6-dimethyl-6H-pyrido[4,3-b]carbazole] | 4.2 | 2.2 |  |  | 
Cc1c2ccncc2cc2c3cc(OC[C@H](C)N(C)C)ccc3n(C)c12 [Compound 230, (S)-1-((5,6-dimethyl-6H-pyrido[4,3-b]carbazol-9-yl)oxy)-N,N-dimethylpropan-2-amine] | 1.2 |  | 4.3 |  | 
Cc1c2ccncc2cc2c1oc1ccc(OCCN3CCOCC3)cc12 [Compound 231, 5-methyl-9-(2-morpholinoethoxy)benzofuro[2,3-g]isoquinoline] | > 200 | > 5 |  |  | 
Cc1c2ccncc2cc2c3cccc(OCC4=NCCN4)c3n(C)c12 [Compound 232, 7-((4,5-dihydro-1H-imidazol-2-yl)methoxy)-5,6-dimethyl-6H-pyrido[4,3-b]carbazole] | 2 |  | > 5 |  | 
Cn1c2ccc(OCC3=NCCN3)cc2c2cc3cnccc3cc21 [Compound 234, 9-((4,5-dihydro-1H-imidazol-2-yl)methoxy)-6-methyl-6H-pyrido[4,3-b]carbazole] | 0.8 |  | 0.65 |  | 
Cc1c2ccncc2cc2c3cc(OCCN4CCOCC4)ccc3n(C(C)C)c12 [Compound 235, 4-(2-((6-isopropyl-5-methyl-6H-pyrido[4,3-b]carbazol-9-yl)oxy)ethyl)morpholine] | > 200 | > 5 |  |  | 
Cc1c2ccncc2cc2c1oc1ccc(OCCN(C)C)cc12 [Compound 236, N,N-dimethyl-2-((5-methylbenzofuro[2,3-g]isoquinolin-9-yl)oxy)ethanamine] | 14 | > 5 |  |  | 
CN(C)CCOc1ccc2c(c1)c1cc3cnccc3cc1n2C [Compound 237, N,N-dimethyl-2-((6-methyl-6H-pyrido[4,3-b]carbazol-9-yl)oxy)ethanamine] | 3.6 | 2 |  |  | 
Cc1c2ccncc2cc2c3cc(OC[C@@H](C)N(C)C)ccc3n(C)c12 [Compound 242, (R)-1-((5,6-dimethyl-6H-pyrido[4,3-b]carbazol-9-yl)oxy)-N,N-dimethylpropan-2-amine] | 0.5 |  | 1.5 |  | 
Cc1c2ccncc2cc2c3cc(N4CCN(C)CC4)ccc3n(C)c12 [Compound 243, 5,6-dimethyl-9-(4-methylpiperazin-1-yl)-6H-pyrido[4,3-b]carbazole] | 0.6 |  | 1.2 |  | 
Cc1c2ccncc2cc2c3cc(N4CCNCC4)ccc3n(C)c12 [Compound 244, 5,6-dimethyl-9-(piperazin-1-yl)-6H-pyrido[4,3-b]carbazole] | 0.4 |  | 2.4 |  | 
Cn1c2ccc(OCC(=N)N)cc2c2cc3cnccc3cc21 [Compound 245, 2-((6-methyl-6H-pyrido[4,3-b]carbazol-9-yl)oxy)acetimidamide] | 0.8 |  | 1.7 |  | 
Cc1c2ccncc2cc2c3cc(N4CCNC5(CC5)C4)ccc3n(C)c12 [Compound 246, 5,6-dimethyl-9-(4,7-diazaspiro[2.5]octan-7-yl)-6H-pyrido[4,3-b]carbazole] | 1.6 |  | > 5 |  | 
Cc1c2ccncc2cc2c3cc(OCCN4CCOCC4)ccc3n(CC(C)(C)C)c12 [Compound 247, 4-(2-((5-methyl-6-neopentyl-6H-pyrido[4,3-b]carbazol-9-yl)oxy)ethyl)morpholine] | > 200 |  | > 5 |  | 
Cc1c2ccncc2cc2c3cc(OCCN4CCOCC4)ccc3n(CCC(C)C)c12 [Compound 248, 4-(2-((6-isopentyl-5-methyl-6H-pyrido[4,3-b]carbazol-9-yl)oxy)ethyl)morpholine] | > 200 | > 5 |  |  | 
Cc1c2ccncc2cc2c3cc(OCC4=NCCN4)ccc3n(CCC(C)C)c12 [Compound 249, 9-(4,5-dihydro-1H-imidazol-2-ylmethoxy)-6-isopentyl-5-methyl-pyrido[4,3-b]carbazole] | 22 |  | > 5 |  | 
Cc1c2ccncc2cc2c1[nH]c1ccc(OCCN3CCOCC3)cc12 [Compound 250, 4-(2-((5-methyl-6H-pyrido[4,3-b]carbazol-9-yl)oxy)ethyl)morpholine] | 11 |  | > 5 |  | 

Structure (SMILES) | Ki ([1]; Table F) [µM] | IC25 [2] [µM] | IC25 [2, 3] [µM] | Ki ([1]; Table D) [µM] | IC25 [2, 4] [µM]
Cc1c2ccncc2cc2c3cc(OCC4=NCCN4)ccc3n(CC(C)(C)C)c12 [Compound 252, 9-((4,5-dihydro-1H-imidazol-2-yl)methoxy)-5-methyl-6-neopentyl-6H-pyrido[4,3-b]carbazole] | > 200 |  | > 5 |  | 
Cc1c2ccnc(C(=O)N[C@H](C)CN(C)C)c2cc2c3cccc(OCCCN4CCN(C)CC4)c3n(C)c12 [Compound 253, (R)—N-(1-(dimethylamino)propan-2-yl)-5,6-dimethyl-7-(3-(4-methylpiperazin-1-yl)propoxy)-6H-pyrido[4,3-b]carbazole-1-carboxamide] | 14 |  | > 5 |  | 
Cc1c2ccncc2cc2c3cc(OCC4=NCCN4)cc(F)c3n(C)c12 [Compound 254, 9-((4,5-dihydro-1H-imidazol-2-yl)methoxy)-7-fluoro-5,6-dimethyl-6H-pyrido[4,3-b]carbazole] | 1.8 |  | > 5 |  | 
CCn1c2ccc(OCC3=NCCN3)cc2c2cc3cnccc3cc21 [Compound 255, 9-(4,5-dihydro-1H-imidazol-2-ylmethoxy)-6-ethyl-pyrido[4,3-b]carbazole] | 8.8 |  | 1.25 |  | 
CC(C)n1c2ccc(OCC3=NCCN3)cc2c2cc3cnccc3cc21 [Compound 256, 9-(4,5-dihydro-1H-imidazol-2-ylmethoxy)-6-isopropyl-pyrido[4,3-b]carbazole] | 42 |  | > 5 |  | 
Cc1c2ccncc2cc2c1[nH]c1ccc(OCC3=NCCN3)cc12 [Compound 257, 9-((4,5-dihydro-1H-imidazol-2-yl)methoxy)-5-methyl-6H-pyrido[4,3-b]carbazole] | 5.7 |  | 2.7 |  | 
COc1ccc2c(c1)c1cc3c(C(=O)N[C@H](C)CN(C)C)nccc3c(C)c1n2C [Example 25, (R)—N-(1-(dimethylamino)propan-2-yl)-9-methoxy-5,6-dimethyl-6H-pyrido[4,3-b]carbazole-1-carboxamide] |  |  |  | 39 | 0.27
Cc1c2ccnc(C(=O)N[C@H](C)CN(C)C)c2cc2c3cc(OCCCN4CCN(C)CC4)ccc3n(C)c12 [Example 26, (R)—N-(1-(dimethylamino)propan-2-yl)-5,6-dimethyl-9-(3-(4-methylpiperazin-1-yl)propoxy)-6H-pyrido[4,3-b]carbazole-1-carboxamide] |  |  |  | 5.9 | 0.57
COc1ccc2c(c1)c1cc3c(C(=O)N[C@@H](C)CN(C)C)nccc3c(C)c1n2C [Example 27, (S)—N-(1-(dimethylamino)propan-2-yl)-9-methoxy-5,6-dimethyl-6H-pyrido[4,3-b]carbazole-1-carboxamide] |  |  |  | 9.1 | 1
COc1ccc2c(c1)c1cc3c(C(=O)NCCN(C)C)nccc3c(C)c1n2C [Example 28, N-[2-(dimethylamino)ethyl]-9-methoxy-5,6-dimethyl-pyrido[4,3-b]carbazole-1-carboxamide] |  |  |  | 8.1 | 0.64
COc1ccc2c(c1)c1cc3c(C(=O)NCCCN(C)C)nccc3c(C)c1n2C [Example 29, N-(3-(dimethylamino)propyl)-9-methoxy-5,6-dimethyl-6H-pyrido[4,3-b]carbazole-1-carboxamide] |  |  |  | 17 | 0.74
Cc1c2ccncc2cc2c3cc(OCCN4CCN(C)CC4)ccc3n(C)c12 [Example 30, 5,6-dimethyl-9-(2-(4-methylpiperazin-1-yl)ethoxy)-6H-pyrido[4,3-b]carbazole] |  |  |  | 2.5 | 2.2
Cc1c2ccncc2cc2c3cc(OCCN4CCCCC4)ccc3n(C)c12 [Example 31, 5,6-dimethyl-9-(2-(piperidin-1-yl)ethoxy)-6H-pyrido[4,3-b]carbazole] |  | 2.8 |  | 4.5 | 
Cc1c2ccncc2cc2c3cc(OCCN)ccc3n(C)c12 [Example 32, 2-((5,6-dimethyl-6H-pyrido[4,3-b]carbazol-9-yl)oxy)ethanamine] |  |  |  | 9.5 | 1.4
CCN(CC)CCOc1ccc2c(c1)c1cc3cnccc3c(C)c1n2C [Example 33, 2-((5,6-dimethyl-6H-pyrido[4,3-b]carbazol-9-yl)oxy)-N,N-diethylethanamine] |  | 3.7 |  | 5.2 | 
CNC(=O)COc1ccc2c(c1)c1cc3cnccc3c(C)c1n2C [Example 34, 2-((5,6-dimethyl-6H-pyrido[4,3-b]carbazol-9-yl)oxy)-N-methylacetamide] |  |  |  | 6.1 | 1.2
Cc1c2ccncc2cc2c3cc(OCc4nccn4C)ccc3n(C)c12 [Example 35, 5,6-dimethyl-9-((1-methyl-1H-imidazol-2-yl)methoxy)-6H-pyrido[4,3-b]carbazole] |  |  |  | 38 | > 5
